From PubChem BioAssay (NCI)
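In this assay, cells in 96-well plates receive the compound at five concentrations for 48 hours. Endpoints are linearly interpolated between the surrounding concentrations. Definition used: TGI = concentration required for complete inhibition of growth.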

Key:
Assay in all cases: NCI-60 cell line screen, 48 h
SK-MEL-2 melanoma = test system: SK-MEL-2 melanoma
SK-MEL-5 melanoma = test system: SK-MEL-5 melanoma
SNB-75 CNS = test system: SNB-75 CNS
HCT-116 colon = test system: HCT-116 colon
MDA-N = test system: MDA-N
NCI-H23 lung = test system: NCI-H23 lung
NCI/ADR-RES ovarian = test system: NCI/ADR-RES ovarian
786-0 renal = test system: 786-0 renal
A498 renal = test system: A498 renal
SR leukemia = test system: SR leukemia
MDA-MB-435 = test system: MDA-MB-435
UACC-62 melanoma = test system: UACC-62 melanoma
HS 578T breast = test system: HS 578T breast
TK-10 renal = test system: TK-10 renal
CCRF-CEM leukemia = test system: CCRF-CEM leukemia
HCC-2998 colon = test system: HCC-2998 colon
MDA-MB-231 breast = test system: MDA-MB-231 breast
MCF7 breast = test system: MCF7 breast
NCI-H522 lung = test system: NCI-H522 lung
MOLT-4 leukemia = test system: MOLT-4 leukemia

| Structure (SMILES) | TGI (SK-MEL-2 melanoma) [µM] | TGI (SK-MEL-5 melanoma) [µM] | TGI (SNB-75 CNS) [µM] | TGI (HCT-116 colon) [µM] | TGI (MDA-N) [µM] | TGI (NCI-H23 lung) [µM] | TGI (NCI/ADR-RES ovarian) [µM] | TGI (786-0 renal) [µM] | TGI (A498 renal) [µM] | TGI (SR leukemia) [µM] | TGI (MDA-MB-435) [µM] | TGI (UACC-62 melanoma) [µM] | TGI (HS 578T breast) [µM] | TGI (TK-10 renal) [µM] | TGI (CCRF-CEM leukemia) [µM] | TGI (HCC-2998 colon) [µM] | TGI (MDA-MB-231 breast) [µM] | TGI (MCF7 breast) [µM] | TGI (NCI-H522 lung) [µM] | TGI (MOLT-4 leukemia) [µM] |
| --- | --- | --- | --- | --- | --- | --- | --- | --- | --- | --- | --- | --- | --- | --- | --- | --- | --- | --- | --- | --- |
| CC(CC[C@@H](O)C(C)(C)O)C1[C@@H](O)CC2(C)C3CC(O)C4C(C)(C)[C@@H](OC5OC(CO)C(O)C(O)C5O)CC[C@@]45C[C@@]35CC[C@]12C (some centres undefined) | > 10 | > 10 | > 10 | > 10 | > 10 | > 10 | > 10 | > 10 | > 10 | > 10 | > 10 | > 10 | > 10 | > 10 | > 10 | > 10 | > 10 | > 10 | > 10 | > 10 |
| Cc1cc(-c2cccc3ccccc23)c(C#N)c(=S)n1C1OC(CO)C(O)C(O)C1O (centres undefined) | > 100 | > 100 | 47.5 | > 100 | > 100 | > 100 | > 100 | > 100 | > 100 | > 100 | > 100 | > 100 | > 100 | > 100 | > 100 | > 100 | > 100 | > 100 | – | > 100 |
| COc1ccc([C@H]2CC(=O)C[C@H](c3ccc(OC)cc3)C23C(=O)c2ccccc2C3=O)cc1 | 17.5 | 17.4 | 8.63 | > 100 | 5.35 | > 100 | 7.69 | > 100 | > 100 | 42.2 | 5.95 | > 100 | 87.8 | > 100 | > 100 | 32.6 | > 100 | > 100 | 18.6 | > 100 |
| O=C1/C(=c2\s/c(=C\c3ccccc3)c(=O)n2-c2ccccc2)SC(=S)N1c1ccccc1 | > 100 | > 100 | > 100 | > 100 | > 100 | > 100 | 96.8 | > 100 | > 100 | > 100 | > 100 | > 100 | > 100 | > 100 | > 100 | > 100 | 57.1 | > 100 | – | > 100 |
| CN1CCc2c3n(c4cc(Br)ccc24)[C@H](O)CCCC31 (some centres undefined) | 1.7 | > 8.72 | 5.83 | 3.07 | 3.24 | > 10 | > 10 | 3.08 | > 10 | 4.05 | 3.27 | – | 4.57 | > 10 | 3.74 | 3.16 | 4.38 | 3.24 | 3.01 | 3.97 |
| CN(Cc1ccccc1)C(=NC#N)N(Cc1ccccc1)Cc1ccccc1 | 40.7 | 33.3 | 82.2 | > 55.3 | 39.6 | 64 | 56.1 | 97.6 | > 100 | > 100 | 33.7 | 55.6 | > 100 | > 100 | > 100 | > 87.1 | 58.7 | 93.2 | 55.5 | > 100 |
| CC1(C)CC(C2=NCCO2)CC(C)(C)N1 | > 100 | > 100 | > 100 | > 100 | > 100 | > 100 | > 100 | > 100 | > 100 | > 100 | > 100 | > 100 | > 100 | > 100 | > 100 | – | > 100 | 61.1 | – | > 100 |
| Cc1ccc([N+](=O)[O-])cc1S(=O)(=O)Nc1ccc(C2=NOC(c3ccco3)C2)cc1 (centres undefined) | 33.8 | 27.7 | 35.7 | 31.9 | 31.5 | 37.4 | 52.6 | 34.9 | 34.6 | 23.8 | 11.8 | 27.1 | > 100 | > 100 | > 100 | 31.9 | 33.1 | 35.5 | 32.7 | 46.6 |
| Cn1c(=O)c2c(nc3n(CCCCl)c(=O)ccn23)n(C)c1=O | > 100 | > 100 | > 100 | > 100 | > 100 | > 100 | > 100 | > 100 | > 100 | > 100 | > 100 | > 100 | > 100 | > 100 | > 100 | > 100 | > 100 | > 100 | > 100 | > 100 |
| CC[C@H](CCCC[C@H]1CC[C@@H]2CC(=O)C[C@H]12)OC | > 100 | 93 | > 100 | > 100 | > 100 | > 100 | > 100 | > 100 | > 100 | > 100 | > 100 | > 100 | > 100 | > 100 | > 100 | > 100 | > 100 | > 100 | > 100 | > 100 |
| COC(=O)C(Cc1ccccc1)NP(=O)(O)OCC1OC(n2cc(Br)c(=O)[nH]c2=O)CC1O (centres undefined) | > 100 | > 100 | > 100 | > 100 | > 100 | > 100 | > 100 | > 100 | > 100 | > 100 | > 100 | > 100 | > 100 | > 100 | > 100 | > 100 | > 100 | > 100 | > 100 | > 100 |
| CC1(C)C2C=C(CCN3CCOCC3)CC1C2 (centres undefined) | > 100 | > 100 | > 100 | > 100 | > 100 | > 100 | > 100 | > 100 | > 100 | > 100 | > 100 | > 100 | > 100 | > 100 | > 100 | > 100 | > 100 | > 100 | > 100 | > 100 |
| CC(=O)OCC1=C(C(=O)O)N2C(=O)C(NC(=O)CSc3ccncc3)C2SC1 (centres undefined) | > 100 | > 100 | > 100 | > 100 | > 100 | > 100 | > 100 | > 100 | > 100 | > 100 | > 100 | > 100 | > 100 | – | > 100 | > 100 | > 100 | > 100 | > 100 | > 100 |
| N#CC(C#N)=C1c2ccccc2C(=NN)c2ccccc21 | > 100 | > 100 | > 100 | – | > 100 | – | > 100 | > 100 | > 100 | > 100 | > 100 | > 100 | > 91.5 | > 100 | > 100 | > 100 | > 100 | > 100 | > 100 | > 100 |
| Cc1c(C)c(C)c(-n2c(=O)n(C)c(=O)n2-n2c(=O)n(C)c(=O)n2-c2c(C)c(C)c(C)c(C)c2C)c(C)c1C | > 100 | > 100 | > 100 | > 100 | > 100 | – | > 100 | > 100 | > 100 | > 100 | > 100 | > 100 | > 100 | > 100 | – | > 100 | > 100 | > 100 | > 100 | > 100 |
| O=[N+]([O-])c1c(F)c(F)c2c(c1F)Nc1ccccc1S2 | 4.75 | 23.8 | 32.6 | 6.18 | 14.5 | 7.13 | 59.7 | 21.6 | 30.4 | 5.61 | 14.4 | 20.4 | 28.6 | 38.4 | 6.46 | 6.96 | 4.76 | 17.8 | 10.9 | 6.57 |
| C=C(CCOC)CCC1CCCCC(=C)[C@H]1OC(C)=O (some centres undefined) | > 100 | > 100 | > 100 | > 100 | > 100 | > 100 | > 100 | > 100 | > 100 | > 100 | > 100 | > 100 | > 100 | > 100 | > 100 | – | > 100 | > 100 | > 100 | > 100 |
| COc1ccc(OC)c(-c2nc3n(c2/C=C2/C(=O)Nc4ccccc42)CCS3)c1 | 79 | > 100 | 83 | > 100 | 44.7 | > 100 | > 100 | > 100 | > 100 | 94.4 | 40 | > 100 | > 100 | > 100 | > 100 | – | 92.3 | > 100 | > 100 | 78.2 |
| C/C(=C(/C)c1ccc(O)cc1)c1ccc(O)cc1 | > 100 | 50 | > 100 | > 100 | > 100 | > 100 | > 100 | > 100 | > 100 | 83.8 | > 100 | 83.3 | 75.6 | > 100 | > 100 | > 100 | > 100 | > 100 | > 100 | > 100 |
| O=C1NCC(CSc2nc3cc(C4CCCc5c4[nH]c4ccccc54)ccc3o2)N1 (centres undefined) | > 100 | > 100 | > 100 | > 100 | > 100 | > 100 | > 100 | > 100 | 50.6 | > 100 | > 100 | > 100 | > 100 | > 100 | > 100 | > 100 | > 100 | > 100 | > 100 | > 100 |
| COc1ccc2nc3cc(Cl)ccc3c(NCCNC(=O)Cn3c(=O)n(C)c(=O)c4c3nc3c(c(=O)n(C)c(=O)n3C)[n+]4[O-])c2c1 | > 100 | > 100 | 92.2 | > 100 | > 100 | 56 | > 95.8 | > 100 | 98.8 | 63.8 | > 69.5 | > 52.9 | 71.2 | > 56.1 | > 100 | > 100 | > 100 | > 100 | > 74.6 | > 90.8 |
| O=C(O)c1n[nH][nH]c1=S | > 100 | > 100 | > 100 | > 100 | > 100 | > 100 | > 100 | > 100 | > 100 | > 100 | > 100 | > 100 | > 100 | – | > 100 | > 100 | > 100 | > 100 | > 100 | > 100 |
| CC12O[C@]3([C@H](C(=O)N4CCOC43C)[C@H]1Cl)[C@H]1O[C@H]12 (some centres undefined) | > 100 | > 100 | > 100 | > 100 | > 100 | – | > 100 | > 100 | > 100 | > 100 | > 100 | > 100 | > 100 | > 100 | – | > 100 | > 100 | > 100 | > 100 | > 100 |
| COC(=O)C1CC2CCC1(O[Si](C(C)C)(C(C)C)C(C)C)C(O)C2 (centres undefined) | 32.1 | 61.7 | > 100 | 36.2 | 57.4 | 44.9 | > 100 | 31.5 | > 100 | 26.6 | 30.9 | > 100 | 99.6 | – | > 100 | 46 | 38.9 | 28.4 | 44.7 | 30.1 |
